Data as given in patent US20240293447A1, “Materials and Methods for Prevention and Treatment of Diarrhea and Inflammation in the Gastrointestinal Tract” (University of Florida Research Foundation, Inc., priority 2012, published 2024).

System: colitis in mice
Assay: Colitis in mice (dextran sulfate sodium (DSS)-induced colitis) after CaSR-activating nutrients
Assay type: in vivo
Conditions: three-to-six-week-old mice received CaSR-activating nutrients (calcium, spermine, tryptophan, cinacalcet); figure legends only
Description: Briefly, three-to-six-week-old, pre-pubertal rats and mice (WT v. villin/cre-floxed CaSR) received antigens or CaSR-activating nutrients (calcium, spermine, tryptophan, and cinacalcet). After treatment, mice and rats were sacrificed, and epithelial barrier, cytokine expression, dendritic cell, T cell, and B cell activation, and response to inflammatory stress were determined (FIG. 2).

**Q.** With `C[C@@H](NCCCc1cccc(C(F)(F)F)c1)c1cccc2ccccc12` [cinacalcet] as the compound, how does the effect on colitis read?
**A.** Its effect on colitis is “can be used to treat colitis”.
